Results as given in patent publication US20110257135A1, “TOPICAL PESTICIDE FORMULATION” (priority 2008, published 2011).

What was measured:
[1] = test system: mice; test: Initial topical test of 4% w/v formulation on mice; format: in vivo; conditions: 4% w/v cholecalciferol in absolute alcohol, 0.5 ml per animal
Source text: (§1) A formulation of the present invention was initially prepared and tested on mice and laboratory rats to determine the viability of the invention. The formulation contained cholecalciferol in an amount of 4% w/v and absolute alcohol. […] These studies are described in the following examples.

[2] = test system: laboratory rats; test: Initial topical test of 4% w/v formulation on laboratory rats; format: in vivo; conditions: 4% w/v cholecalciferol in absolute alcohol, 0.5 ml per animal
Source text: as §1

[3] = test system: Bush Rat (Rattus rattus); test: Dermal application of cholecalciferol, Example 1 study (Table 1); format: in vivo; conditions: 1.0 ml of 20% cholecalciferol in absolute alcohol, topical; animal weight unknown
Procedure: (§2) Two formulations of the invention were prepared both containing cholecalciferol in solution with absolute alcohol. One of the formulations contained cholecalciferol in an amount of 20% w/v. The other formulation contained cholecalciferol in an amount of 40% w/v. The formulation was topically applied to several animal pest species in varying amounts and the animals were studied.

[4] = test system: Ferret; test: as above; format: in vivo; conditions: 2.0 ml of 40% cholecalciferol in absolute alcohol, topical; animal 902 g
Procedure: as §2

[5] = test system: Hedgehog; test: as above; format: in vivo; conditions: 1.5 ml of 20% cholecalciferol in absolute alcohol, topical; animal 515 g
Procedure: as §2

[6] = test system: Lab Rat (Rattus norvegicus); test: as above; format: in vivo; conditions: 0.5 ml of 20% cholecalciferol in absolute alcohol, topical; animal weight unknown
Procedure: as §2

[7] = test system: Rabbit; test: as above; format: in vivo; conditions: 2.0 ml of 20% cholecalciferol in absolute alcohol, topical; animal 2.6 kg
Procedure: as §2

[8] = test system: Weasel; test: as above; format: in vivo; conditions: 1.5 ml of 40% cholecalciferol in absolute alcohol, topical
Procedure: as §2

[9] = test system: stoats; test: Dermal application of test solution to wild-caught stoats (Example 2 study); format: in vivo
Procedure: A test solution of approximately 100 ml was formulated, containing Vitamin D3 (cholecalciferol) resin in the solvent absolute alcohol. The concentration of cholecalciferol in the solution was about 40% w/v. The formulation was designed to kill stoats.
Wild-caught adult stoats (three male and three female) were housed in outdoor cages (60×150×90 cm). Each stoat was provided with a nest box (40×33×15 cm) containing shredded paper as nesting material. Stoats were fed a rotation of, dead day-old chicks, chicken pet mince and mutton/beef pet mince in the afternoon and had free access to water.
They were acclimatised to captivity for at least 5 months prior to being used in the trial. The stoats were lightly anaesthetised with isoflurane, weighed and then had 1.5 ml of the test solution applied to their skin and fur, using a syringe to deliver a line of solution along the spine from the nape to the base of the tail. This was a ‘high exposure’ simulation of the manner in which the delivery system would apply a toxic solution to the fur and skin of stoats.
After application of the solution, the stoats were placed into large nest boxes which were lined with paper but without bedding material, to facilitate observation. Dark Perspex lids were kept on the nest boxes to minimise disturbance of stoats by human observers. The stoats were monitored constantly through recovery from anaesthesia and then for the next three hours to record their responses to the solution on their coats and document any behaviour associated with its presence e.g. grooming, rubbing or rolling. After the three hour observation period in the boxes, stoats were returned to their outdoor cages with nesting material, food and water freely available. […] After this, observations of each stoat were recorded once daily, noting any signs of illness that are associated with cholecalciferol poisoning, e.g. stop feeding, significant body weight loss. Where any signs of illness occurred, the monitoring was to be increased to twice daily (morning and afternoon).
Feed intakes of the stoats were visually estimated for at least three days prior to dosing, i.e. ration all eaten, half eaten, quarter eaten, none eaten. Food intake was similarly noted daily after dosing through until death or 21 days (whichever occurred first). Stoats were weighed at least once a week after dosing, through to death or 21 days (which ever occurred first). Any stoats that died during the 21 day observation were to be retained for necropsy. Typical signs of poisoning (inappetance combined with significant body weight loss) were used as an alternative endpoint for the trial, with a weight loss greater than 25% of bodyweight at dosing triggering euthanasia. Stoats that survived the 21 day observation were to be euthanized.

[10] = Cholecalciferol concentration of test solution by normal phase liquid chromatography (stability of formulation); format: physicochemical
Procedure: To confirm the cholecalciferol concentration present and enable accurate exposure calculations when the test solution was applied to the stoats, a sub-sample (approximately 20 ml) of this solution was taken for analysis. Cholecalciferol concentration was determined by taking a sample of liquid which was warmed, mixed and 0.2 g weighed into a volumetric flask 30 ml of toluene was added, and this solution was sonicated without heating and made up to volume. The solution was diluted with hexane/isopropyl alcohol, filtered and analysed against an internal standard by normal phase liquid chromatography.
The test solution was analysed as containing 30% cholecalciferol with an uncertainty of 5%. This was lower than the nominal 40% cholecalciferol in the solution indicated by the analysis carried out the day after the solution was prepared. The assay was carried out on a sub-sample of solution taken 7 days after preparation, and also following the extraction of 6×1.5 ml aliquots of the solution for application to stoats.
This may mostly have occurred on exposure to air when aliquots of solution were drawn from the container for application to the stoats. Cholecalciferol preparations are sensitive to light and exposure to air, with oxidation and inactivation occurring over a few days in the presence of moist air. However, it is noted that even at a 30% concentration, the solution contained sufficient cholecalciferol to deliver an effective lethal dose to all six stoats in 1.5 ml.

[11] = test system: weasels; test: Proof of concept trial on wild weasels (Example 3 study); format: in vivo
Source text: Three wild weasels were caught for a proof of concept trial to determine if the formulation of the invention would be effective as a humane method of killing these pests. The weasels were caged separately in individual waterproof, roofed, wired enclosures of approximately 1 m^2. The animals were fed on raw meat, by simply placing the meat on a wire hooked into the side of the cages. In eating the animals simply pulled on and chewed the meat. Drinking water was available. Within each enclosure was a small box of 25×25 cm with a mesh roof. A vertical sliding door could be removed to provide an entrance to the enclosure and the enclosure was half filled with nesting material of hay. It was observed that the animals covered themselves in the hay and made pathways through it.
Each of the animals was then treated with a formulation comprising 32% cholecalciferol (resin form) in solution with the glycol ether, DGMEE, and observations were made.
The first animal, a male weasel weighing 157 grams, was treated by application of 1 ml of the formulation using a syringe to the back of the animal. This weasel died within 44 hours of application of the formulation.
The second animal, a female weasel weighing 94 grams, was treated using an eradication apparatus as described above. The electronically activated apparatus was placed into the cage of the animal. The apparatus comprised of a tunnel, including a sensing means comprising two pairs of sensors, and a tracking card to record the footprints of the weasel to establish that the animal had passed through the tunnel. An automatic dispensing means was operatively connected to the tunnel, so that when the weasel passed through the tunnel and the two pairs of sensors were covered ,simultaneously, the dispensing , means was automatically activated to deliver the formulation to the animal. In this manner, approximately 0.9 ml of the cholecalciferol formulation was applied to the back of the weasel as it passed through the tunnel of the apparatus. It was observed that some of the formulation was present on the tracking card so the weasel had not received the total volume of the formulation. The weasel died approximately 50 hours after receiving the formulation.
The third animal, a male weasel weighing 54 grams was treated by squirting approximately 1 ml of the formulation onto the back of the animal using a hand held syringe. This weasel died within about 39 hours of application of the formulation.

[12] = test system: Rattus rattus (bush rat); test: Topical administration to live captured bush rats (Example 4 study); format: in vivo
Procedure: Three animals of the species Rattus rattus (also known as the bush rat) were live captured. They were placed in separate enclosures with on demand food and water supplies, and nesting material of dry hay. After 14 days of acclimatization to these conditions, the animals were each treated with a formulation comprising a solution of 33% cholecalciferol (resin form) in the glycol ether, DGMEE. Each animal was given a dose of about 3 ml of the formulation by topical administration to the back of the animal using a calibrated syringe. Each of the animals died within six days of receiving the formulation. The first rat, a male weighing 122 grams, weighed 106 grams at death. The second rat, a female weighing 108 grams, weighed 98 grams at death. The third rat, a male weighing 97 grams, weighed 90 grams at death.

[13] = Stoat Female 407, 193 g at dosing, 2331 mg/kg dermal
[14] = Stoat Male 391, 235 g at dosing, 1914 mg/kg dermal
[15] = Stoat Male 415, 382 g at dosing, 1178 mg/kg dermal
[16] = Stoat Male 419, 359 g at dosing, 1253 mg/kg dermal

## C=C1CC[C@H](O)C/C1=C/C=C1\CCC[C@]2(C)[C@@H]([C@H](C)CCCC(C)C)CC[C@@H]12 [cholecalciferol]
[1]
  death of the animal: death of the animal occurred within a reasonably short time frame
[2]
  death of the animal: death of the animal occurred within a reasonably short time frame
[3]
  Observations: time to death: within 40 hours
[4]
  Observations: time to death: within 48 hours
[5]
  Observations: time to death: within 25 hours
[6]
  Observations: time to death: within 72 hours
[7]
  Observations: time to death: within 2 days
[8]; animal 116 g
  Observations: time to death: within 43 hours
[8]; animal 139 g
  Observations: time to death: within 36 hours
[9]; Stoat Female 407, 2331 mg/kg dermal
  % weight loss at death: 46%
[9]; Stoat Female 407, 193 g at dosing, 1.5 ml test solution, estimated exposure 2331 mg/kg
  Fate (days after dosing): died (12)
[9]; [13]
  Weight at day 7: 151 g
  Weight at day 12: 112 g
[9]; Stoat Female 413, 2486 mg/kg dermal
  % weight loss at death: 44%
[9]; Stoat Female 413, 181 g at dosing, 1.5 ml test solution, estimated exposure 2486 mg/kg
  Fate (days after dosing): died (11)
[9]; Stoat Female 413, 181 g at dosing, 2486 mg/kg dermal
  Weight at day 7: 120 g
[9]; Stoat Female 414, 2205 mg/kg dermal
  % weight loss at death: 13%
[9]; Stoat Female 414, 204 g at dosing, 1.5 ml test solution, estimated exposure 2205 mg/kg
  Fate (days after dosing): died (4)
[9]; Stoat Male 391, 1914 mg/kg dermal
  % weight loss at death: 30%
[9]; Stoat Male 391, 235 g at dosing, 1.5 ml test solution, estimated exposure 1914 mg/kg
  Fate (days after dosing): euthanized (12)
[9]; [14]
  Weight at day 7: 188 g
  Weight at day 12: 166 g
[9]; Stoat Male 415, 1178 mg/kg dermal
  % weight loss at death: 36%
[9]; [15]
  Weight at day 7: 296 g
  Weight at day 12: 254 g
[9]; Stoat Male 415, 382 g at dosing, 1.5 ml test solution (nominal 40%, assayed 30%, absolute alcohol), estimated exposure 1178 mg/kg
  Fate (days after dosing): euthanized (12)
[9]; Stoat Male 419, 1253 mg/kg dermal
  % weight loss at death: 37%
[9]; [16]
  Weight at day 7: 277 g
  Weight at day 12: 253 g
[9]; Stoat Male 419, 359 g at dosing, 1.5 ml test solution, estimated exposure 1253 mg/kg
  Fate (days after dosing): euthanized (12)
[9]; from the first night after dosing, generally eating less than half of rations each day
  inappetance (stop feed effect): All six stoats showed inappetance
[9]; lower end of exposure range in stoats, test solution in absolute alcohol
  effective lethal dermal exposure (in excess of or equal to a dermal LD99 value): 1178 mg/kg
[9]; morning after return to outdoor cages, 1.5 ml test solution
  cages with vomitus present: three of the 6
[9]; six stoats, over 12 days after dosing, 1.5 ml test solution
  mortality (number of stoats): three
[9]; stoats that died
  necropsy findings: no gross evidence of calcification/mineralisation or lung damage
[9]; three male stoats, 1.5 ml test solution, 1178-1914 mg/kg
  time of euthanasia after dosing (weight loss endpoint), male stoats: 12 days
[10]; analysis carried out the day after the solution was prepared, absolute alcohol
  cholecalciferol concentration of test solution (nominal): 40%
[10]; during the 7 days from preparation to application
  change of cholecalciferol concentration in test solution: slight decline
[10]; sub-sample taken 7 days after preparation, after extraction of aliquots, uncertainty of 5%, absolute alcohol
  cholecalciferol concentration of test solution: 30%
[11]; female weasel 94 grams, approximately 0.9 ml of 32% cholecalciferol in DGMEE
  appetite after application: lost its appetite
[11]; female weasel 94 grams, approximately 0.9 ml of 32% cholecalciferol in DGMEE via eradication apparatus, not total volume received
  time to death: approximately 50 hours
[11]; male weasel 54 grams, approximately 1 ml of 32% cholecalciferol in DGMEE by hand held syringe
  time to death: ≤ 39 h
[11]; male weasel 157 grams, 1 ml of 32% cholecalciferol (resin) in DGMEE by syringe to the back
  time to death: ≤ 44 h
[11]; male weasel 157 grams, 1 ml of 32% cholecalciferol in DGMEE
  food consumption after application: ate only a small quantity of what it had previously been consuming
[12]; first rat, male weighing 122 grams, about 3 ml of 33% cholecalciferol in DGMEE
  weight at death: 106 grams
[12]; over the first few days of treatment, about 3 ml of 33% cholecalciferol in DGMEE
  hair loss at application site: hair loss was observed on all of the animals
[12]; second rat, female weighing 108 grams, about 3 ml of 33% cholecalciferol in DGMEE
  weight at death: 98 grams
[12]; third rat, male weighing 97 grams, about 3 ml of 33% cholecalciferol in DGMEE
  weight at death: 90 grams
[12]; three bush rats, about 3 ml of 33% cholecalciferol (resin) in DGMEE, topical to the back
  time to death: six
